A word on the EC50: it is the concentration that produces a half-maximal response. A high value points to lower potency in that assay.

Experimental findings from patent US20250034186A1, “ANTIVIRAL COMPOUNDS” (priority 2020, published 2025) are described below.

One data set has as its system HCV replicon 2A. Briefly: HCV Rep 2A EC50. The format is cell-based. Particulars: for EC50: Hepatitis C virus, 72 h, HCV replicon cells, 3 days. How it is done: (§1) Compounds were serially diluted in ten steps of 1:3 dilutions in 384-well plates. All serial dilutions were performed in four replicates per compound within the same 384-well plate. […] To each well of a black polystyrene 384-well plate (Greiner Bio-one, Monroe, NC), 90 μL of cell culture medium (without Geneticin) containing 2000 suspended HCV replicon cells was added with a Biotek μFlow workstation. For compound transfer into cell culture plates, 0.4 μL of compound solution from the compound serial dilution plate was transferred to the cell culture plate on a Biomek FX workstation. The DMSO concentration in the final assay wells was 0.44%. The plates were incubated for 3 days at 37° C. with 5% CO2 and 85% humidity. The HCV replicon assay was a multiplex assay, able to assess both cytotoxicity and antireplicon activity from the same well. The CC50 assay was performed first. The media in the 384-well cell culture plate was aspirated, and the wells were washed four times with 100 μL of PBS each, using a Biotek ELX405 plate washer. A volume of 50 μL of a solution containing 400 nM calcein AM (Anaspec, Fremont, CA) in 1×PBS was added to each well of the plate with a Biotek μFlow workstation. The plate was incubated for 30 min at room temperature before the fluorescence signal (excitation 490 nm, emission 520 nm) was measured with a Perkin-Elmer Envision plate reader. The EC50 assay was performed in the same wells as the CC50 assay. The calcein-PBS solution in the 384-well cell culture plate was aspirated with a Biotek ELX405 plate washer. A volume of 20 μL of Dual-Glo luciferase buffer (Promega, Madison, WI) was added to each well of the plate with a Biotek μFlow Workstation. The plate was incubated for 10 min at room temperature. […] The plate was then incubated at room temperature for 10 min before the luminescence signal was measured with a Perkin-Elmer Envision Plate Reader.
(Replicon systems follow genome replication, usually without infectious particles.)

The next data set concerns HCV replicon 1B. The data set is described as follows: HCV Rep 1B EC50. The format is cell-based. Particulars: for EC50: Hepatitis C virus, 72 h, HCV replicon cells, 3 days. How it is done: as §1
Data set [1] deals with Dengue serotype 2 New Guinea C (NGC) strain. The data set is described as follows: DENV-2 Huh-7 EC50. Type of data set: cell-based. Particulars: Dengue virus, Huh7 cells, 48 hours, qPCR. As for the experimental part:
Huh7 (Human hepatocarcinoma 7) cells were maintained in 10% FCS-containing DMEM complete media. On the day of the assay, cells were trypsinized (0.1% Trypsin-EDTA), washed and infected for 2 hours in serum-free DMEM with Dengue serotype 2 New Guinea C (NGC) strain at MOI=0.1 with gentle agitation at 37° C. After 2 hours, cells were washed with serum-free media and suspended in 10% FCS-containing DMEM (Gibco, supplemented with sodium pyruvate, NEAA, Penicillin-Streptomycin). […] were plated in triplicate in 96-well plates with compounds dispensed at graded doses (Hewlett-Packard D300 Digital Dispenser). All wells were normalized to 0.25% DMSO. At 48 hours, cells were washed with 1×PBS and all supernatants removed. Total RNA was extracted using RNEasy 96 plates (Qiagen) and used to generate first-strand cDNA using XLT cDNA 5× Supermix (QuantaBio). cDNA was used as a template in a Taqman qPCR duplex reaction specific to DENV2 viral and GAPDH gene expression. EC50 values were determined using Prism Graphpad software, with normalization to a positive control and no compound negative control wells.
For orientation: Quantitative PCR measures a nucleic acid by following its amplification.

Data set [2] can be described thus: PBMC in-vitro intracellular triphosphate formation assay. The format is in vitro ADME. Particulars: 2 μM, 2 hours incubation, compared to compound 2 and/or 6 (FIG. 2). How it is done: In-vitro intracellular triphosphate formation was measured for the compound of Formula I and compounds 2 and 6 using the following protocol. Freshly-isolated PBMC's were derived from a healthy donor and were suspended to a concentration of 5 million cells/mL in culture medium ([…] containing L-glutamine) prior to the start of the experiment. 10 mL aliquots of PBMCs were transferred to 50 mL conical tubes with loosened caps and compounds were added to a final concentration of 2 μM. 1 mL aliquots were then transferred to the wells of a 24-well plate per sample. The PBMC-compound mixtures were incubated for 2 hours at 37° c./5% CO2 under gentle agitation. Following incubation, PBMCs were spun at 5000 RPM for 3 min and supernatants were aspirated without disturbing the cell pellet. For samples undergoing immediate analysis, samples were resuspended in pre-cooled 1× Tris-buffered saline and were transferred to 1.5 mL conical tubes containing 0.5 mL of nyosil M25. Samples/Oil aliquots were then spun for 1 min at 13,000 RPM. Following centrifugation, all media was aspirated from the tubes without disturbing the oil layer. Water was added on top of the oil layer and the spinning/aspiration process was repeated followed by an additional water wash. […]

The nature of data set [3]: NHBE in-vitro intracellular triphosphate formation. Type of data set: in vitro ADME, human. Particulars: 10 μM, up to 26 h, compared to compound 2 and/or 6 (FIG. 1). How it is done:
In-vitro intracellular triphosphate formation was measured for the compound of Formula I and compound 6 using the following protocol. Normal human bronchial airway epithelial cells (NHBEs) (0.25 million cells/well) were continuously incubated with 10 μM of compound for 26 hours. At select time points (2, 4, 6, and 26 h), the extracellular medium was removed from the well and the cells were washed twice with 2 mL of ice-cold 0.9% normal saline and extracted into 0.5 mL ice-cold 70% methanol containing 100 nM 2-chloro-adenosine-5′-triphosphate (Sigma-Aldrich, St. Louis, MO) as an internal standard. Samples were stored overnight at −20° C. to facilitate nucleotide extraction, centrifuged at 15,000×g for 15 minutes and then supernatant was transferred to clean tubes for drying in a MiVac Duo concentrator (Genevac, Gardiner, NY). Dried samples were then reconstituted in mobile phase A containing 3 mM ammonium formate (pH 5.0) with 10 mM dimethylhexylamine (DMHA) in water for analysis by LC-MS/MS.

As to `CCC(CC)COC(=O)[C@H](C)NP(=O)(OC[C@@]1(C#N)O[C@@H](c2ccc3c(N)ncnn23)[C@H](O)[C@@H]1O)Oc1ccccc1` (stereo partly drawn) [Compound 2, reference compound], the EC50 with HCV replicon 2A is 1830 nM; in the data set with HCV replicon 1B, 2780 nM.
With `C[C@H](N[P@](=O)(OC[C@@]1(C#N)O[C@@H](c2ccc3c(N)ncnn23)[C@H](O)[C@@H]1O)Oc1ccccc1)C(=O)OC1CCCCC1` [Formula I, cyclohexyl ((S)-(((2R,3S,4R,5S)-5-(4-aminopyrrolo[2,1-f][1,2,4]triazin-7-yl)-2-cyano-3,4-dihydroxytetrahydrofuran-2-yl)methoxy)(phenoxy)phosphoryl)-L-alaninate], the EC50 came to 1630 nM in data set [1], 1270 nM in the data set with HCV replicon 2A and 793 nM in the data set on HCV replicon 1B. Moreover, the “in-vitro intracellular NTP formation in PBMCs” value in data set [2] is given as “lower”. Besides, the “in-vitro intracellular NTP formation in NHBEs” value in data set [3] was “equal to or better”. Moreover, in the data set with HCV replicon 2A (EC50 ratio vs compound 2), the “times more potent relative to compound 2, HCV Rep 2A” value is roughly 1.4 times. Also, the “times more potent relative to compound 2, HCV Rep 1B” value with HCV replicon 1B (EC50 ratio vs compound 2) was “about 3.5 times”.
